Reference: US11357782B2, “Treprostinil administration by inhalation” (priority 2006, dated 2022)
Entries after “also recorded” stand apart in the source; their conditions may differ.

Experiments:
[1] = system: patients with severe pulmonary hypertension; assay: Study iii) reduction of inhalation time at fixed 15 μg dose, pulsed ultrasonic nebulizer
Description: Study iii) was a randomized, open-label, single blind study. The primary objective was to explore the shortest possible inhalation time for a 15 μg dose of inhaled treprostinil. A total of 48 patients inhaled one dose of TRE during right heart catheter investigation. The drug was applied in 18, 9, 3, 2 or 1 breaths. The aerosol was generated by a pulsed ultrasonic nebulizer (OPTINEB®, Nebutec, Elsenfeld, Germany) in cycles consisting of 2 seconds aerosol production (pulse) and 4 seconds pause. The device included an opto-acoustical trigger for the patient to synchronize the inspiration to the end of the aerosol pulse, thereby providing exact dosage. The TRE dose of 15 μg was either generated during 18 cycles (OPTINEB® filled with 100 μg/ml TRE, n=6), 9 cycles (200 μg/ml TRE, n=6), 3 cycles (600 μg/ml TRE, n=21), 2 cycles (1000m/m1 TRE, n=7) or 1 cycle (2000 μg/ml TRE, n=8). Hemodynamics and gas exchange were recorded for 120-180 minutes.

[2] = system: patients with pre-existing gas exchange problems; assay: Ventilation-perfusion matching by multiple inert gas elimination technique (MIGET)
Description: The impact of SMI-TRE on ventilation-perfusion matching was assessed in five patients (30 μg TRE, n=2; 45 μg TRE, n=1; 60 μg TRE, n=2) with pre-existing gas exchange problems by use of the multiple inert gas elimination technique (MIGET), see e.g. Wagner PD, Saltzman HA, West JB. Measurement of continuous distributions of ventilation-perfusion ratios: theory. J Appl Physiol. 1974; 36:588-99; Ghofrani HA, Wiedemann R, Rose F, Schermuly RT, Olschewski H, Weissmann N et al. Sildenafil for treatment of lung fibrosis and pulmonary hypertension: a randomised controlled trial. Lancet. 2002; 360:895-900, both incorporated herein in their entirety.
The inhalation of a highly concentrated aerosol can be in theory prone to disturbances of gas exchange because the deposition of even small amounts of aerosol may deliver high doses locally and thereby antagonize the hypoxic pulmonary vasoconstriction in poorly ventilated areas. This would then lead to increased shunt flow or increase of low ventilation/perfusion (V/Q) areas. This question was addressed in five patients with the multiple inert gas elimination technique (MIGET), the gold-standard for intrapulmonary V/Q ratio determination. The MIGET patients were selected for pre-existing gas exchange limitations. […] Etiologies were iPAH (n=1), CTEPH (n=3), pulmonary fibrosis (n=1).

[3] = 15 μg, 1 pulse, 2000 μg/ml, n=8
[4] = 15 μg, 2 pulses, 1000 μg/ml, n=7
[5] = 15 μg, 3 pulses, 600 μg/ml, n=21
[6] = 15 μg, 9 pulses, 200 μg/ml, n=6
[7] = 15 μg, 18 pulses, 100 μg/ml, n=6

`CCCCC[C@H](O)CC[C@@H]1[C@H]2Cc3cccc(OCC(=O)[O-])c3C[C@H]2C[C@H]1O.[Na+]` [TRE] was tested, and the reported side effects ([1]; 15 μg, 48 patients, cough n=6, headache n=2, jaw pain n=1) was “mild transient cough; also recorded: mild headache; also recorded: mild jaw pain”, the cardiac output ([1]; 15 μg, all groups) was “moderately increased” and the systemic arterial pressure ([1]; 15 μg, all groups) was “not significantly affected”. For the same compound, the “PAP reduced to” value [1, 3] was 88±5.4%, the “PVR reduced to” value [1, 3] was 80.3±5.2% and the “PAP reduced to” value [1, 4] was 86±4%. For the same compound, the “PVR reduced to” value [1, 4] was 77.4±4.5%, the “PAP reduced to” value [1, 5] was 81.1±4.1% and the “PVR reduced to” value [1, 5] was 71.2±6.0%. For the same compound, the “PAP reduced to” value [1, 6] was 84.2±4.1%, the “PVR reduced to” value [1, 6] was 72.9±4.9% and the “PAP reduced to” value [1, 7] was 84.2±4.5%. For the same compound, the “PVR reduced to” value [1, 7] was 76.3±5.6%, the “concentration safely utilized without considerable side effects” value ([1]; metacresol-free TRE solution, modified OPTINEB) was ≤ 2000 µg/mL and the “duration of pulmonary vasodilation” value ([1]; single breath of 2000 μg/ml, 15 μg, compared to placebo inhalation) was > 3 h. The shunt flow ([2]; 60 minutes after SMI-TRE, mean±95% confidence interval, n=5) was 8.3±3.4%, the “low V/Q areas or shunt fraction” value ([2]; after inhalation of SMI-TRE, n=5) was “No significant increase” and the “maximal relative reduction of SaO2” value ([2]; five MIGET patients, compared to baseline values) was −3.8±1.5%.
